# According to patent US8093393B2, “Cationic ceramides, and analogs thereof, and their use for preventing or treating cancer” (MUSC Foundation for Research Development, priority 2004, dated 2012):
# Experiments:
# [1] = tested on: L929 mouse fibroblast cells; experiment: TNFα-induced PGE2 release; assay type: cell-based
# Description: Interleukin-1 is a major inducer of inflammation and TNF is an important regulator of the reaction. Both cytokines can activate ceramidase, and thus inhibiting the activity of ceramidase can result in an anti-inflammatory effect. This may involve the prevention of the formation of sphingosine and sphingosine phosphate which have pro-inflammatory effects. Also, inhibition of ceramidase may prevent the hyperproliferation of immune cells that are important for inflammation. […] The release of PGE2 is also shown to be inhibited by D-(N-myristolyamino)-1-phenyl-1-propanol), D-MAPP, which is an inhibitor of one of the ceramidase. This observation may be important for inhibiting inflammatory reactions that occur in conditions, such as but not limited to rheumatoid arthritis. Thus, it is possible to treat or prevent inflammation by regulating the level of cellular ceramide using the method of the invention. As discussed above, ceramide level can be increased by administering compounds of the present invention that can inhibit mitochondrial ceramidase.
# [2] = tested on: UM-SCC-22A cells; experiment: MTT cell survival assay and isobologram studies; assay type: cell-based, human; details: Homo sapiens, read-out: IC50 of chemotherapeutic agents
# [3] = tested on: telomerase; experiment: Telomerase activity (TRAP) in treated cells; assay type: cell-based, human; details: UM-SCC-22A, 48 hr, C6-Pyr-Cer 1 μM, GMZ 100 nM
# Description: FIGS. 13A to 13B. Roles of CCPS on cell cycle profiles, and telomerase activity of UM-SCC-22A cells. (FIG. 13A) The effects of D-e-C6—, D-e-C12- and L-th-C12-pyridinium ceramides (at 1 μM for 48 hr) on cell cycle profiles of UM-SCC-22A cells were determined and compared to that of untreated cells using flow cytometry as described in Materials and Methods. (FIG. 13B) The effects of 0, 100, 250 and 500 nM L-t-C6-Pyr-Cer (LCL-124) (lanes 1-4, respectively) at 96 hr treatment in UM-SCC-22A cells on telomerase activity was assessed using TRAP assay. Lanes 5 and 6 contain positive (+) and negative (−) controls. To examine whether C6-Pyr-Cer inhibits telomerase activity directly, cell extracts (as shown in lane 1) were incubated in the presence of various concentrations of L-th-C6-Pyr-ceramide (LCL-124; 10, 20 and 100 μM) and telomerase activity was determined using TRAP assay (lanes 7-9, respectively). The presence of non-telomeric 36 bp internal standard (IS) in the TRAP assay serves as a control for polymerase chain reaction, and used for quantitation/normalization of the activity of telomerase. The results shown are representative of at least two independent experiments.
# FIGS. 14A to 14D. […] (FIG. 14A) The effects of various chemotherapeutic agents on cell growth in UM-SCC-22A cells were determined using MTT assays, and the IC50 concentrations of each agent were determined from cell growth plots as described. (FIG. 14B) The synergistic effects of DOX and L-th-C6-Pyr-Cer (LCL-124) on cell growth were assessed using isobologram studies as described in Materials and Methods. (FIG. 14C) The effects of 1 μM L-th-C6-Pyr-Cer (LCL-124) or cetyl-pyridinium-bromide, without ceramide conjugate (used as a control) on the growth inhibition potential of GMZ in UM-SCC-22A cells were determined using MTT assays. (FIG. 14D) The effects of GMZ (100 nM), L-th-C6-Pyr-Cer (LCL-124; 1 μM) or GMZ and L-th-C6-Pyr-Cer (LCL-124) (100 nM and 1 μM, respectively) on telomerase activity in UM-SCC-22A cells at 48 hr were examined using TRAP assay, and compared to that of untreated controls (lanes 2, 3, 4 and 1, respectively). The data shown are representative of at least two independent experiments performed in triplicate samples. Standard deviations in each sample were between 0.1-0.5.
# Determination of telomerase activity. Telomerase activity in cell extracts was measured by the PCR-based telomere repeat amplification protocol (TRAP) using TRAPeze kit (Intergen, Gaithersburg, Md.) which includes a 36-bp internal control to allow quantification of activity. In short, the intensity of telomere-specific DNA bands, measured using Quantity One (BioRad) software, were normalized to the intensity of internal control bands for each sample on polyacrylamide gels for quantification.
# [4] = tested on: telomeres; experiment: Telomere length (TRF) in tumor tissues; assay type: in vivo, human; details: versus untreated controls
# Description: FIG. 29. […] In (B), DNA samples obtained from tumors treated with GMZ (G), L-t-C6-Pyr-Cer (Cer), and the combination of L-t-C6-Pyr-Cer with GMZ (G/C, lanes 2-4, respectively) were compared to that of untreated (U) tumors (lane 1). Lanes 5 and 6 contain DNA samples with low (L) and high (H) molecular weight (3.9 and 10.2 kb, respectively) telomeres. In (D) The levels of hTERT protein in samples obtained from tumors treated with GMZ (G), L-t-C6-Pyr-Cer (Cer), and the combination of L-t-C6-Pyr-Cer with GMZ (G/Cer, lanes 2-4, respectively) were determined by Western blot analysis using rabbit polyclonal anti-hTERT antibody, and compared to that of untreated (U) tumors (lane 1). Lanes 5 and 6 contain samples from telomerase positive (+) and negative (−) extracts. Beta-actin levels of these samples were used as loading controls (lanes 1-6, lower panel). The data shown are representative of two independent trials, and error bars represent standard deviations.
# Analysis of telomere length in tumor tissues. The measurement of telomere length was performed in total genomic DNA samples isolated from tumor tissues of the SCID mice using Telomere Restriction Fragment (TRF) Length measurement kit (Roche) by Southern blotting as described in Sundararaj, et al. J Biol Chem 2004; 279:6152-6162.
# [5] = tested on: UM-SCC-22A xenografts; details: 40 mg/kg/each IP every 4 days for 20 days
# Description: A) Upper Panel: In vivo therapeutic efficacy of L-t-C6-Pyr-Cer in combination with GMZ was determined in SKID mice harboring the UM-SCC-22A xenografts implanted in both flanks. The animals were treated with L-t-C6-Pyr-Cer and GMZ at 40 mg/kg/each every 4 days for 20 days. […] In these experiments, each group contained 6 mice, harboring 12 tumors, in this study. Error bars represent standard deviations, and p values were calculated. […] C) The blood counts, the levels of serum enzymes, and electrolytes were analyzed in response to L-t-C6-Pyr-Cer alone or in combination with GMZ in SKID mice.
# After tumors were grown to about 200-400 mm^3 (about two weeks after implantation), the mice were treated without or with chemotherapeutic agents with intraperitoneal (IP) injection (alone or in combination) at half of their maximum tolerated doses (MTD) every 4 days for 20 days. Tumor volumes and the weights of the animals were measured before each treatment, and tumor sizes were measured at the end of the study. The endpoint was tumor rate of growth and/or tumor volume, which was calculated using the formula: length×width^2×0.52. Each experiment included at least 6 mice (which harbored two SCC tumors in flanks) per each treatment, and experiments were done at least in two independent trials.
# [6] = mice; cited from earlier work
# [7] = tested on: MCF7 cells; details: 5 μM, 5 h
# Description: FIGS. 4A-4C show the cellular levels of CCPS analogs. MCF 7 cells were treated with 5 μM concentration of CCPS analogs over the time and cellular level of the nonmetabolized CCPSs was measured by MS methodology as shown under Experimental. Results are expressed as % of concentration applied.
# A parallel set of cells was used to determine cell proliferation and to prepare lipid extracts for MS analysis.
# Briefly, for the indicated points, media was removed, cells were washed twice with PBS, scraped into cold PBS (2×1.0 ml), transferred to glass vials and centrifuged for 5 min at 800 rpm. Cell pellets corresponding to ˜1×10^6 cells, were fortified with the internal standards IS (C17 base D-erythro-sphingosine: 17Sph, C17 sphingosine-1-phosphate: 17Sph-1P, N-palmitoyl-D-erythro-C13 sphingosine: 13CC16-Cer and N-heptadecanoyl-D-erythro-C17shingosine: 17CC17-Cer) and extracted (2×2 ml) into a one-phase solvent system with ethyl acetate/iso-propanol/water (60/30/10 v/v). One ml of this extract was used for Pi determination after lipid re-extraction by the Bligh and Dyer method. Remaining lipid extract was evaporated, reconstituted in 100 μl of methanol, and samples were injected on the Surveyor/TSQ 7000 LC/MS system and gradient eluted from the BDS Hypersil C8, 150×3.2 mm, 3 μm particle size column, with 1.0 mM methanolic ammonium formate/2 mM aqueous ammonium formate mobile phase system. Peaks corresponding to the target analytes and IS were collected and processed using the Xcalibur software system.
# Cellular level of CCPS analogs was established by MS methodology.
# [8] = molecular target: T1, dihydroceramide 4,5-desaturase (Homo sapiens, UniProt O15121); experiment: Conversion of dhCCPS analogs to CCPS analogs in MCF7 cells; assay type: cell-based; details: MS
# T1 construct: dihydroceramide 4,5-desaturase in MCF7 cells to generate the corresponding CCPS analogs; endogenous in cells; host or cells: MCF7
# T1 sequence (O15121 1-323): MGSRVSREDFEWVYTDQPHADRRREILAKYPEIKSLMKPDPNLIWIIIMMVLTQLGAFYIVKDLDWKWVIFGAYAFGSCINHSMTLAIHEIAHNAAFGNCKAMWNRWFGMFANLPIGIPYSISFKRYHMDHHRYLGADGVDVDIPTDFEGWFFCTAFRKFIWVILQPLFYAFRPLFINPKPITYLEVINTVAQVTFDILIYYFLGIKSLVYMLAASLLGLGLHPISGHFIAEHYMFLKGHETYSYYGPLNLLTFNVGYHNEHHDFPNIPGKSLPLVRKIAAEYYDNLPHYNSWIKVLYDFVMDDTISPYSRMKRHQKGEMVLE
# Description: Absolute levels (pmol) of dhCCPS and CCPS analogs was established by MS approach as shown in the Examples (see Section 6). Data are expressed as changes of particular dhCCPS and CCPS to the total level of dhCCPS+CCPS (100%).
# [9] = tested on: MCF7 breast carcinoma cells; experiment: Cell proliferation and viability, Trypan blue exclusion assay; assay type: cell-based; details: 48 h treatment; read-out: IC50, inhibitory effect on MCF7 cell growth
# Description: FIGS. 5A-5F show the dose dependent effects of CCPS analogs on survival of MCF7 breast carcinoma cells in comparison to the activity of D-e-C6-ceramide, which is commonly used as a model of ceramide action. Cell proliferation and cell viability were determined by Trypan blue exclusion assay. These assays were performed using duplicate samples in two or three independent experiments.
# Cell Proliferation: Cells were seeded into plates at a density of approx. 50% corresponding to 1×10^6 cells, in 10 ml of 10% FCS and after an over night incubation the cells were treated with LCL compounds at concentration 0-20 μM in ethanol (ethanol level was kept below 0.1%) and the changes in cell numbers after 48 h were determined and expressed as a percentage of the untreated controls.
# Briefly, media was removed, cells were washed twice with PBS, detached using 1% Trypsin and centrifuged at 800 rpm. Cell pellets were resuspended in PBS and Trypan blue (Sigma Chemicals, St. Louis, Mo., USA) was added (1:1 dilution). Under light microscope, the percentage of unstained and stained cells was assessed.
# To examine the anticancer activity of CCPS analogs of the invention, their inhibitory effect on MCF7 breast carcinoma cells were analyzed and compared to the activity of D-e-C6-ceramide, which is commonly used as a model of action for ceramides. Cell proliferation and cell viability were determined by Trypan blue exclusion assay.
# [10] = Solubility of ceramides and ceramidoids in water
compound,measurement,setting,value
CCCCCCCCCCCCCC(=O)NC(C)C(O)c1ccccc1 [D-MAPP],release of PGE2,[1],inhibited
"Nc1ccn([C@@H]2O[C@H](CO)[C@@H](O)C2(F)F)c(=O)n1 [GMZ, gemcitabine, reference compound]",IC50,[2],0.1 to 0.25 µM
same,inhibition of telomerase activity,[3],50%
same,reduction of TRF (telomere) length in tumors,[4],~200 bp
same,inhibition of HNSCC tumor growth,[5],some inhibition of HNSCC tumor growth
same,MTD of reference drugs (known),[6],80 mg/kg
"CCCCCCCCCCCCCCC[C@@H](O)[C@H](CO)NC(=O)CCCCCCCCCCC[n+]1ccccc1.[Br-] [LCL249, D-erythro-2-N-[12′-(1″-Pyridinium)-dodecanoyl]-4,5-dihydrosphingosine Bromide]","Cellular level, % of concentration applied",[7],7%
same,metabolism of dhCCPS to the corresponding CCPS analog,[8],time dependent formation of C12-CCPS (LCL88)
"CCCCCCCCCCCCCCC[C@@H](O)[C@H](CO)NC(=O)CCCCCCCCCCCCCCC[n+]1ccccc1.[Br-] [LCL345, D-erythro-2-N-[16′-(1″-Pyridinium)-hexadecanoyl]-4,5-dihydrosphingosine Bromide]","Cellular level, % of concentration applied",[7],4%
same,IC50,[9],2.5 µM
same,metabolism of dhCCPS to the corresponding CCPS analog,[8],time dependent formation of C16-CCPS (LCL30)
same,Solubility at 22° C.,[10]; 22° C.,0.3 mg/mL
same,Solubility at 22° C. ([mM]),[10]; 22° C.,(0.42) mM
same,Solubility at 37° C.,[10]; 37° C.,1.4 mg/mL
same,Solubility at 37° C. ([mM]),[10]; 37° C.,(2.0) mM
